Laboratory results taken from a melting point compilation (Tetko et al.; mined from patent text by program, amines drawn as free bases though some values may be those of a salt).

Compound	melting point
O=C(O)COc1cc(F)ccc1C(=S)NCc1ccc(Br)cc1F	154 to 157 °C
Cn1cnnc1SCC(=O)C12CC3CC(CC(C3)C1)C2	134 to 136 °C
O=[N+]([O-])c1ccc(-c2cc3c(O)ncnc3o2)cc1	> 350 °C
O=C1c2ccc3c4cccc5cccc(c6ccc(c2c36)C(=O)N1CCCCCO)c54	274 to 276 °C
Nc1ccc(N2CCN(c3ccncc3)CC2)cc1	204 to 208 °C
COc1ccc(C(=O)c2ccc(C)cc2)cc1C	73 to 75 °C
CC(=O)Nc1nc(Cl)c(NC=O)c(N[C@@H]2C=C[C@H](CO)C2)n1 (relative stereo)	194 to 195 °C
COc1cc2cc(C(=O)N3CC(COS(C)(=O)=O)c4c3cc(N)c3ccccc43)[nH]c2c(OC)c1OC (stereo unspecified)	> 260 °C
CCOC(=O)c1cc(Oc2ccccc2)ccc1OC	52 °C
CC(=O)N1CCc2c(sc(C)c2CCN2CCC(c3noc4ccc(F)cc34)CC2)C1	167 to 172 °C
O=[N+]([O-])c1cnn2c1-c1ccccc1NC2c1ccc(Cl)cc1 (stereo unspecified)	217 to 219 °C
O=C1CCCN1c1cccc(-n2cnc3cc(-c4ccoc4)cnc32)c1	208 to 210 °C
COc1ccc(-c2cccs2)cc1OC1CCCC1	67 to 68 °C
ICC1COc2ccccc2O1 (stereo unspecified)	38 to 40 °C
CSc1cccc(-c2nc(=O)c3ccccc3s2)n1	207 to 208 °C
CCCCNS(=O)(=O)CC(O)C(O)C(CC1CCCCC1)NC(=O)c1ccnnc1 (stereo unspecified)	170 to 172 °C
CC1Cc2ccccc2C(C(S)(C#N)C(=O)O)=N1 (stereo unspecified)	159 to 160 °C
COc1ccc(Nc2nc(NC3CCNCC3)nc(N(C)N3CCCCCC3)n2)cc1Cl	81 °C
COc1cc2ncc(OC3CCCCC3)nc2cc1OC1CCCCC1	75 to 78 °C
Cc1c(-c2ccccc2)oc2c(C=CC(=O)O)cccc2c1=O	226 to 229 °C
CN(C)C1CCN(c2nc3c(cc2F)c(=O)c(C(=O)O)cn3CCF)C1 (stereo unspecified)	247 to 249 °C
O=C(Nc1ccc(Cl)nc1)c1cccc(Cl)c1	227 to 229 °C
OCC12CCCN(CCC1)C2	64 to 65.5 °C
CN(C)C=C1Cc2c(Cl)cccc2C1=O	148 to 150 °C
CCOC(=O)C=Cc1ccc2c(c1)c1cc(C=CC(=O)OCC)ccc1n2CC	164 to 168 °C
NNC(=O)C(Cl)c1cccc(Cl)n1 (stereo unspecified)	176 to 177 °C

Compound	melting point
CCOC(=O)c1cc(C(C)=O)[nH]n1	114 to 115 °C
CCOC1CN(Cc2cc(OC)c(OC)c(OC)c2)Cc2cc(OC)c(O)cc21 (stereo unspecified)	94 to 96 °C
CC(=O)Oc1ccc(C(=O)Nc2ccc3ccc(Cl)nc3n2)cc1	220 °C
Cn1c(-c2cccc(-c3cc4ccccc4n3C)c2)cc2ccccc21	150 °C
CC(C)c1nc(-c2ccccc2)c(-c2ccccc2)c(-c2ccc(F)cc2)c1CO	169 to 171 °C
CCCNC1Cc2ccc(C3=NNC(=O)CC3)cc2C1 (stereo unspecified)	137 to 138 °C
Clc1nc(-c2nc3ccccc3[nH]2)[nH]c1Cl	300 °C
CC#CC(C)n1nnc2cc3c(=O)n(C(C)Cn4ncnn4)nnc3cc2c1=O (stereo unspecified)	72 to 74 °C
O=C1Cc2cc(Cl)c(N3CCCCC3)cc2O1	129 to 131 °C
O=C1OC(=O)c2c(F)cc(F)cc21	87 to 89 °C
CN(C)CCc1[nH]c2ccccc2c1CC(N)=O	114 to 117 °C
N#Cc1ccc(N2C(=O)NC3(CCCCC3)C2=O)cc1C(F)(F)F	187 °C
C#CCOC(=O)Oc1ccc(Cc2ccc(OC(=O)OCC#C)cc2)cc1	60 °C
O=C(O)c1cccc(-n2c(-c3ccccc3)cc3c2CCCC3)c1	191 to 193 °C
COc1cc2c(cc1OC)CN(CCCCNC(=O)c1cc(C)ccc1OCCF)CC2	131 to 133 °C
C[C@H]1c2cc(F)ccc2-c2ccc(F)cc2N1S(=O)(=O)c1ccc(O)cc1	194 to 196 °C
CC(C)(C)COC(=O)N1CC2CC(CN(CC(O)COc3ccc(C#N)cc3)C2)C1 (stereo unspecified)	146 to 147 °C
CC(=Cc1ccc(C(C)C)cc1)c1ccc2c(c1)C(C)(C)CCC2(C)C	86 to 87 °C
COC(=O)c1cc2c(cn1)[nH]c1ccc(Oc3ccc([N+](=O)[O-])cn3)cc12	150 to 155 °C
Cn1c(=O)c2[nH]c(/C=C/c3ccc4c(c3)OCO4)nc2n(C)c1=O	> 275 °C
CCC1CC(=O)N(Cc2ccc(NC(=O)C(C)C)cc2)N=C1c1ccc(OC)c(OC)c1 (stereo unspecified)	144 °C
COC1=C(OC)C(=O)C(CCCCCCCCCCCCOC(C)=O)=C(C)C1=O	47 °C
Cc1ccc(OCc2nc3nccnc3c(=O)[nH]2)cc1	232 to 233 °C
COc1ccc(C(=O)Nc2c(C)c(C)c3oc(C)c(-c4ccc(F)cc4)c3c2C)cc1	225 to 227 °C
COc1ccc(N=C(NC(=S)NCc2cccnc2)c2ccccc2)cc1	142 to 143 °C
CCN(CC)C(=O)n1cnc(S(=O)(=O)C(F)(F)Br)n1	74 to 75 °C

Continued, values first:

melting point	Compound
145 °C	Cc1cccc(NC(=O)NCC(=O)N(CC(=O)OC(C)(C)C)c2ccccc2C(=O)N(C)c2ccccc2)c1
80 °C	CCCCOc1ccc(Cl)cc1C(=O)NCCc1ccc(CC(=O)OCC)cc1
92 to 95 °C	CNC(=O)C(Cc1ccc(OC)cc1)NC(=O)C(CC(C)C)C(CC(=O)O)SC(C)=O (stereo unspecified)
150 to 152 °C	CCN(CC)C(=O)c1ccc2ccccc2c1-c1ccccc1C
170 to 172 °C	CCC(=O)SCC(C)C(=O)N1C(C(=O)O)CC2CCCCC21 (stereo unspecified)
125 to 127 °C	Cc1nnc(-c2cc3c(OCCCN4CCC(c5ccc6c(c5)OCO6)CC4)cccc3o2)o1
259 to 263 °C	O=C(Nc1ccc(Cl)c2c(-n3ccnc3)ccnc12)c1c(Cl)cccc1Cl
221 to 223 °C	CSC1=NC2C=C(C(=O)NCC3CC3)C(NC(=O)c3cc(C(F)(F)F)nn3-c3ncccc3Cl)=C(Cl)C2S1 (stereo unspecified)
166 to 168 °C	O=c1cc(-c2ccccc2)oc2cccc(OCCCCCCI)c12
181 to 182 °C	COC(=O)c1ccc2c(c1)S(=O)(=O)c1ccccc1N=C2
70 to 72 °C	NCc1ccc(CN2CCN(c3ncccn3)CC2)cc1
163 °C	Cc1nc(C(C)c2ccccc2)c2c(c1O)COC2 (stereo unspecified)
124 to 125 °C	O=C(NCCCCl)Nc1c(Cl)cccc1C(=O)O
200 to 202 °C	Cn1ccc(N)cc1=O
295 to 297 °C	O=C(NCc1ccc(Cl)cc1)c1cnc2c(Cl)c(Cl)ccc2c1O
213 to 214 °C	Cc1c(Cl)cccc1S(=O)(=O)Nc1ccc2nc(C)n(CCO)c2c1
228 to 229 °C	COC(=O)c1cccc(C(=O)NC(Nc2c(Nc3cccnc3)c(=O)c2=O)C(C)(C)C)c1 (stereo unspecified)
228 to 230 °C	Cc1ccc(-n2c(=O)n(O)c(=O)c3cc(F)c(N4CCCC4)nc32)cc1
106 to 110 °C	Cc1ccccc1C(=O)NC1CCC(=O)N2CCCC(C(=O)NC3CC(=O)OC3OCc3ccccc3)N2C1=O (stereo unspecified)
150 °C	CCOC(=O)c1cc(NC(=O)NCC(=O)N2[C@@H](C(=O)OC(C)(C)C)CC[C@H]2c2ccccc2)ccc1O (racemic)
137 to 139 °C	CCOC(=O)N(c1ccc(Cl)cc1N)c1ccc(Cl)cc1Cl
57 to 59 °C	COc1cc(S)c(C(C)=O)c(OC)c1
64 to 65 °C	CC(C)(C)OC(=O)N[C@@H]1CCC[C@@H]1O (relative stereo)
179 °C	CC(C)(C)c1cc(CCc2ccccc2NC(=O)NCC(c2ccccc2)c2ccccc2)cc(C(C)(C)C)c1O
295 to 296 °C	NNC(=O)c1ccc2[nH]nnc2c1

melting point	Compound
99 °C	COc1ccc([C@@H]2CCc3cc(OC)ccc3[C@@H]2CCCO)cc1 (relative stereo)
92 to 94 °C	CCCCCCCCCCCCCCOc1cc(OCCCCCCc2cccc(O)c2O)cc(C(=O)O)c1
219 to 221 °C	O=C(c1ccc(Sc2ccc(O)cc2)cc1)c1ccc(Sc2ccc(O)cc2)cc1
74 to 75 °C	COc1ccc(-c2cccc3ccsc23)cc1
128 to 130 °C	Cc1onc(NS(=O)(=O)c2ccccc2)c1Br
69 to 72 °C	CCOC(=O)c1cc2cccc(OC)c2[nH]1
111 to 113 °C	COC(=O)[C@H](Cc1cc(Cl)c(OCCc2coc(-c3cccc(OCc4ccccc4)c3)n2)c(Cl)c1)NC(=O)C(F)(F)F
125 to 126 °C	COc1cc(-c2cc(C(C)C)nn2C)cc2oc(=O)c(C)c(C)c12
87 to 88 °C	CCOC(=O)c1nnc(Cc2ccccc2Cl)n1C
165 to 166 °C	CCNc1nc2ccc(CCc3nc4cc(C)ccn4c3C)cc2s1
90 to 91 °C	O=C(NCCCSc1ccncc1)c1cccnc1
138 °C	Cc1nc(-c2ccccc2)[nH]c1-c1cnc(-c2ccccc2)nc1
124 to 125 °C	Cc1nc(-c2noc(Cc3ccccc3)n2)sc1C(=O)NCc1ccccc1
54 to 57 °C	Cc1oc(-c2ccccc2)nc1COc1ccc(CON=C(CCCCCCC(=O)O)c2ccc(Cl)cc2)cc1
116 to 117 °C	Cc1oc(-c2ccccc2)nc1COc1ccc(CCCCc2nnn[nH]2)cc1
110 to 114 °C	O=C(/C=C/c1ccccc1F)N1CCN(C(=O)c2cc(C(F)(F)F)cc(C(F)(F)F)c2)[C@H](Cc2c[nH]c3ccccc23)C1
130 to 132 °C	CC(C)(CO)C(=O)N(O)Cc1ccccc1Cl
91 to 92 °C	COc1cc(C)c(N)c(C)c1Cc1ccc(C(C)C)cc1
211 to 212 °C	C=CCNc1nc(NC)c2cc([N+](=O)[O-])ccc2n1
164 to 166 °C	CCCn1c(=O)c2c(NC)n(C(=O)OC)nc2n(Cc2cccc(Cl)c2)c1=O
304 °C	Fc1ccc(-c2n[nH]c(-c3ccncc3)c2-c2ccncc2)cc1
80 to 82 °C	CC(C)C[C@H](NC(=O)OCc1ccccc1)C(=O)NC(C)(C)C(=O)CSCc1ccco1
78 to 80 °C	COc1cc(/C=C/C(=O)CC(=O)C2(C)CC2)ccc1O
> 250 °C	CCc1nn(-c2ccc(C(=N)N)cc2)c(=O)n1-c1ccc(CCC(=O)OC(C)C)cc1
